Experiment [1] concerns the target T1, human somatostatin receptor subtype 2 (Homo sapiens, UniProt P30874).
T1 construct: expressed in transfected cells
The experiment is described as follows: cAMP functional assay for SSTR2 agonists. Conditions: inhibition of cAMP activities via human SST2 receptor (SSTR2), CHO-K1 cells; read-out: EC50. Format: cell-based. In outline: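 CHO-K1 cells stably expressing human SSTR2 were treated for 20 min at 37 °C with compound plus NKH477 (added as 1.6 μM) in HBSS with IBMX. Intracellular cAMP was measured by HTRF against a standard curve. EC50 values came from concentration-response curves.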

The target of another experiment is T2, hSSTR4 (Homo sapiens, UniProt P31391).
T2 construct: expressed in transfected cells
The experiment is described as follows: inhibition of cAMP via hSSTR4. It counts as cell-based. The following applies: selectivity for inhibition of cAMP via hSSTR2 vs. hSSTR4. An excerpt:
General overview: All five SSTR subtypes are Gi coupled G-protein coupled receptors (GPCRs) that lead to decreases in intracellular cyclic AMP (cAMP) when activated by an agonist. Therefore, measurement of intracellular cAMP levels can be used to assess whether compounds of the invention are agonists of SSTR subtypes (John Kelly, Troy Stevens, W. Joseph Thompson, and Roland Seifert, Current Protocols in Pharmacology, 2005, 2.2.1-2.2). One example of an intracellular cAMP assay is described below. cAMP assay protocol:
Four days prior to the assay, 5,000 Chinese hamster ovary cells (CHO-K1, ATCC #CCL-61) stably expressing the human somatostatin receptor subtype 2 are plated in each well of a 96-well tissue culture-treated plate in Ham's F12 growth media (ThermoFisher #10-080-CM) supplemented with 10% donor bovine serum (Gemini Bio-Products #100-506), 100 U/mL penicillin; 100 ug/mL streptomycin; 2 mM L-glutamine (Gemini Bio-Products #400-110) and 0.2 mg/mL hygromycin B (GoldBio #31282-04-9). The cells are cultured at 37° C., 5% CO2 and 95% humidity. On the day of the assay, the media is aspirated and the cells are treated with 50 μL of 1.6 μM NKH477 (Sigma #N3290) plus various dilutions of compounds of the invention in assay buffer [1× Hank's Balanced Salt Solution (ThermoFisher #SH3058802), 0.5 mM HEPES pH 7.4, 0.1% bovine serum albumin, 0.2 mM 3-Isobutyl-1-methylxanthine (IBMX, VWR #200002-790)]. The cells are incubated for 20 minutes at 37° C. (the final concentration of the compounds of the invention are typically 0-10,000 nM). The cells are treated with 50 μL of lysis buffer (HRTF cAMP kit, Cisbio). The lysate is transferred to 384-well plates and cAMP detection and visualization antibodies are added and incubated for 1-24 hours at room temperature. The time-resolved fluorescent signal is read with a Tecan M1000Pro multiplate reader. The intracellular cAMP concentrations are calculated by regression to a standard curve and are plotted vs. the concentration of the compounds of the invention and the EC50 of the compounds are calculated using standard methods. All data manipluations are in GraphPad Prism v6.

T1 sequence (P30874 whole entry): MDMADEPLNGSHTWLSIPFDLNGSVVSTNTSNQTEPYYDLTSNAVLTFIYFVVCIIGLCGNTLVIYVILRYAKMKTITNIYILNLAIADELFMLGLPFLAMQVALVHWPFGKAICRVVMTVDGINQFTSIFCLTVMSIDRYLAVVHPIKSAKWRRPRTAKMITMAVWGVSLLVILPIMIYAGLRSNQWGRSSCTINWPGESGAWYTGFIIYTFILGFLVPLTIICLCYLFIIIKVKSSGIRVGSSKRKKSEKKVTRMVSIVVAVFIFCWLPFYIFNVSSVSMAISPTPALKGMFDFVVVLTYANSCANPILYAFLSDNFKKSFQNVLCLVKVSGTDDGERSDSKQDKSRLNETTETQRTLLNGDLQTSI
T2 sequence (P31391 whole entry): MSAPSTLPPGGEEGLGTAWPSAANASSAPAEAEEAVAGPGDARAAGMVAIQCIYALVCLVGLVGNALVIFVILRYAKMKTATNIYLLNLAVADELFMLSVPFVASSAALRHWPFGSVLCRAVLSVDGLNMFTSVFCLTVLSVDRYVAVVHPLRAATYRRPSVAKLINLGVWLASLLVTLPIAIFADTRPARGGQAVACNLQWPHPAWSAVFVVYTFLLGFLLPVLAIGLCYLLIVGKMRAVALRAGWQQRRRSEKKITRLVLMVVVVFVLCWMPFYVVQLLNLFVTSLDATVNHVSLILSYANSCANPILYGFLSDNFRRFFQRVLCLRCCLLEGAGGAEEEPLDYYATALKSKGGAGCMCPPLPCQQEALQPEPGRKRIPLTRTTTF

For the molecule `Cc1cc(F)cc(-c2cnc(N)c(-c3nc4cc(F)c(F)cc4[nH]3)c2N2CCC(N)CC2)c1` [Compound 1-3, 4-(4-aminopiperidin-1-yl)-3-(5,6-difluoro-1H-1,3-benzodiazol-2-yl)-5-(3-fluoro-5-methylphenyl)pyridin-2-amine], the 50% effective concentration (EC50) (in general, the midpoint of the concentration-response curve) in experiment [1] was less than 10 nM. The “hSST4/hSST2 (ratio)” value at hSSTR4 is “b (between 15 and 50)”.
As for `CCn1c(-c2c(N)ncc(-c3cc(C)cc(F)c3)c2N2CCC(N)CC2)nc2cc(F)c(F)cc21` [Compound 1-5, 4-(4-aminopiperidin-1-yl)-3-(1-ethyl-5,6-difluoro-1H-1,3-benzodiazol-2-yl)-5-(3-fluoro-5-methylphenyl)pyridin-2-amine], the EC50 in experiment [1] was less than 10 nM. For the same molecule, the “hSST4/hSST2 (ratio)” value on hSSTR4 is “b (between 15 and 50)”.
As for `COc1ccc2[nH]c(-c3c(N)ncc(-c4cc(C)cc(F)c4)c3N3CCC(N)CC3)nc2c1` [Compound 1-8, 4-(4-aminopiperidin-1-yl)-5-(3-fluoro-5-methylphenyl)-3-(5-methoxy-1H-1,3-benzodiazol-2-yl)pyridin-2-amine], in experiment [1], the concentration giving a half-maximal response (EC50) was less than 10 nM. For the same molecule, on hSSTR4, the “hSST4/hSST2 (ratio)” value is “b (between 15 and 50)”.
`Cc1cc(F)cc(-c2cnc(N)c(-c3nc4cccc(C)c4[nH]3)c2N2CCC(N)CC2)c1` [Compound 1-10, 4-(4-aminopiperidin-1-yl)-5-(3-fluoro-5-methylphenyl)-3-(7-methyl-1H-1,3-benzodiazol-2-yl)pyridin-2-amine]: the half-maximal effective concentration (EC50) in experiment [1] is less than 10 nM. The “hSST4/hSST2 (ratio)” value at hSSTR4 was “c (between 2.5 and 15)”.
For `Cc1cc(F)cc(-c2cnc(N)c(-c3nc4cc(OC(F)(F)F)ccc4[nH]3)c2N2CCC(N)CC2)c1` [Compound 1-14, 4-(4-aminopiperidin-1-yl)-5-(3-fluoro-5-methylphenyl)-3-[5-(trifluoromethoxy)-1H-1,3-benzodiazol-2-yl]pyridin-2-amine], the EC50 in experiment [1] is less than 10 nM. Besides, the “hSST4/hSST2 (ratio)” value on hSSTR4 is “a (above 50)”.
With `CNc1ncc(-c2cc(C)cc(F)c2)c(N2CCC(N)CC2)c1-c1nc2cc(Cl)ccc2[nH]1` [Compound 1-28, 4-(4-aminopiperidin-1-yl)-3-(5-chloro-1H-1,3-benzodiazol-2-yl)-5-(3-fluoro-5-methylphenyl)-N-methylpyridin-2-amine], in experiment [1], the EC50 was less than 10 nM. The “hSST4/hSST2 (ratio)” value at hSSTR4 is “a (above 50)”.
In the same order, the values of `CCNc1ncc(-c2cc(C)cc(F)c2)c(N2CCC(N)CC2)c1-c1nc2cc(Cl)ccc2[nH]1` [Compound 1-30, 4-(4-aminopiperidin-1-yl)-3-(5-chloro-1H-1,3-benzodiazol-2-yl)-N-ethyl-5-(3-fluoro-5-methylphenyl)pyridin-2-amine] are less than 10 nM and “a (above 50)”.
On to `CCNc1ncc(-c2cc(C)cc(F)c2)c(N2CCC(N)CC2)c1-c1nc2cc(F)cc(F)c2[nH]1` [Compound 1-49, 4-(4-aminopiperidin-1-yl)-3-(5,7-difluoro-1H-1,3-benzodiazol-2-yl)-N-ethyl-5-(3-fluoro-5-methylphenyl)pyridin-2-amine], for which, in experiment [1], the EC50 was less than 10 nM. Besides, at hSSTR4, the “hSST4/hSST2 (ratio)” value was “a (above 50)”.
On to `CCNc1ncc(-c2cc(C)cc(F)c2)c(N2CCC(N)CC2)c1-c1nc2cc(F)c(F)cc2[nH]1` [Compound 1-50, 4-(4-aminopiperidin-1-yl)-3-(5,6-difluoro-1H-1,3-benzodiazol-2-yl)-N-ethyl-5-(3-fluoro-5-methylphenyl)pyridin-2-amine], for which the 50% effective concentration (EC50) in experiment [1] was less than 10 nM. Besides, on hSSTR4, the “hSST4/hSST2 (ratio)” value is “a (above 50)”.
With `Cc1cc(F)cc(-c2cnc(N)c(-c3nc4cc(Cl)cc(F)c4[nH]3)c2N2CCC(N)CC2)c1` [Compound 1-54, 4-(4-aminopiperidin-1-yl)-3-(5-chloro-7-fluoro-1H-1,3-benzodiazol-2-yl)-5-(3-fluoro-5-methylphenyl)pyridin-2-amine], the EC50 in experiment [1] was less than 10 nM. Besides, on hSSTR4, the “hSST4/hSST2 (ratio)” value is on record as “a (above 50)”.
With `CNc1ncc(-c2cc(C)cc(F)c2)c(N2CCC(N)CC2)c1-c1nc2cc(F)c(F)cc2[nH]1` [Compound 1-55, 4-(4-aminopiperidin-1-yl)-3-(5,6-difluoro-1H-1,3-benzodiazol-2-yl)-5-(3-fluoro-5-methylphenyl)-N-methylpyridin-2-amine], the EC50 in experiment [1] was less than 10 nM. For the same molecule, the “hSST4/hSST2 (ratio)” value at hSSTR4 is reported as “a (above 50)”.
Regarding `COCCNc1ncc(-c2cc(C)cc(F)c2)c(N2CCC(N)CC2)c1-c1nc2c(F)cc(F)cc2[nH]1` [Compound 1-56], in experiment [1], the EC50 was less than 10 nM. In addition, the “hSST4/hSST2 (ratio)” value at hSSTR4 is recorded as “a (above 50)”.
As for `Cc1cc(F)cc(-c2cnc(N)c(-c3nc4cc(F)c(F)cc4n3C)c2N2CCC(N)CC2)c1` [Compound 1-57, 4-(4-aminopiperidin-1-yl)-3-(5,6-difluoro-1-methyl-1H-1,3-benzodiazol-2-yl)-5-(3-fluoro-5-methylphenyl)pyridin-2-amine], the concentration giving a half-maximal response (EC50) in experiment [1] is less than 10 nM. For the same molecule, the “hSST4/hSST2 (ratio)” value on hSSTR4 is listed as “a (above 50)”.
For the molecule `COc1cc(F)cc2[nH]c(-c3c(N)ncc(-c4cc(C)cc(F)c4)c3N3CCC(N)CC3)nc12` [Compound 1-58, 4-(4-aminopiperidin-1-yl)-3-(6-fluoro-4-methoxy-1H-1,3-benzodiazol-2-yl)-5-(3-fluoro-5-methylphenyl)pyridin-2-amine], in experiment [1], the 50% effective concentration (EC50) was less than 10 nM. Also, on hSSTR4, the “hSST4/hSST2 (ratio)” value was “c (between 2.5 and 15)”.
With `COc1cc(F)c2nc(-c3c(N)ncc(-c4cc(C)cc(F)c4)c3N3CCC(N)CC3)[nH]c2c1` [Compound 1-59, 4-(4-aminopiperidin-1-yl)-5-(3-fluoro-5-methylphenyl)-3-(4-fluoro-6-methoxy-1H-1,3-benzodiazol-2-yl)pyridin-2-amine], the concentration giving a half-maximal response (EC50) in experiment [1] was less than 10 nM. The “hSST4/hSST2 (ratio)” value at hSSTR4 was “b (between 15 and 50)”.
For the molecule `CNc1ncc(-c2cc(C)cc(F)c2)c(N2CCC(N)CC2)c1-c1nc2cccc(OC)c2[nH]1` [Compound 1-71, 4-(4-aminopiperidin-1-yl)-5-(3-fluoro-5-methylphenyl)-3-(7-methoxy-1H-1,3-benzodiazol-2-yl)-N-methylpyridin-2-amine], the concentration giving a half-maximal response (EC50) in experiment [1] was less than 10 nM. The “hSST4/hSST2 (ratio)” value on hSSTR4 was “c (between 2.5 and 15)”.
Turning to `Cc1cc(F)cc(-c2cnc(N)c(-c3nc4cc(F)cc(OCC#N)c4[nH]3)c2N2CCC(N)CC2)c1` [Compound 1-74, 2-({2-[2-amino-4-(4-aminopiperidin-1-yl)-5-(3-fluoro-5-methylphenyl)pyridin-3-yl]-5-fluoro-1H-1,3-benzodiazol-7-yl}oxy)acetonitrile], the concentration for a half-maximal effect (EC50) in experiment [1] is less than 10 nM. Besides, on hSSTR4, the “hSST4/hSST2 (ratio)” value was “c (between 2.5 and 15)”.
With `CNc1ncc(-c2cc(C)cc(F)c2)c(N2CCC(N)CC2)c1-c1nc2cc(Cl)cc(F)c2[nH]1` [Compound 1-75, 4-(4-aminopiperidin-1-yl)-3-(5-chloro-7-fluoro-1H-1,3-benzodiazol-2-yl)-5-(3-fluoro-5-methylphenyl)-N-methylpyridin-2-amine], the 50% effective concentration (EC50) in experiment [1] was less than 10 nM. Moreover, on hSSTR4, the “hSST4/hSST2 (ratio)” value is “a (above 50)”.
With `COc1ncc(-c2cc(C)cc(F)c2)c(N2CCC(N)CC2)c1-c1nc2cc(F)ccc2[nH]1` [Compound 2-1, 1-[3-(5-fluoro-1H-1,3-benzodiazol-2-yl)-5-(3-fluoro-5-methylphenyl)-2-methoxypyridin-4-yl]piperidin-4-amine], in experiment [1], the concentration for a half-maximal effect (EC50) was less than 10 nM. Also, at hSSTR4, the “hSST4/hSST2 (ratio)” value is listed as “a (above 50)”.
`COc1ncc(-c2cc(C)cc(F)c2)c(N2CCC(N)CC2)c1-c1nc2cc(Cl)ccc2[nH]1` [Compound 2-2, 1-[3-(5-chloro-1H-1,3-benzodiazol-2-yl)-5-(3-fluoro-5-methylphenyl)-2-methoxypyridin-4-yl]piperidin-4-amine]: in experiment [1], the EC50 was less than 10 nM. In addition, the “hSST4/hSST2 (ratio)” value on hSSTR4 is on record as “a (above 50)”.
Regarding `COc1ccc2[nH]c(-c3c(OC)ncc(-c4cc(C)cc(F)c4)c3N3CCC(N)CC3)nc2c1` [Compound 2-3, 1-[5-(3-fluoro-5-methylphenyl)-2-methoxy-3-(5-methoxy-1H-1,3-benzodiazol-2-yl)pyridin-4-yl]piperidin-4-amine], in experiment [1], the half-maximal effective concentration (EC50) is less than 10 nM. In addition, on hSSTR4, the “hSST4/hSST2 (ratio)” value is “a (above 50)”.
Turning to `COc1ncc(-c2cc(C)cc(F)c2)c(N2CCC(N)CC2)c1-c1nc2cc(F)cc(F)c2[nH]1` [Compound 2-5, 1-[3-(5,7-difluoro-1H-1,3-benzodiazol-2-yl)-5-(3-fluoro-5-methylphenyl)-2-methoxypyridin-4-yl]piperidin-4-amine], the EC50 in experiment [1] was less than 10 nM. For the same molecule, the “hSST4/hSST2 (ratio)” value at hSSTR4 is recorded as “a (above 50)”.

The record behind these values is patent US11072598B2, “Somatostatin modulators and uses thereof” (CRINETICS PHARMACEUTICALS, INC., priority 2017, dated 2021).
